The NIST ThermoML archive (doi:10.1021/je200820v)
Numbers after ± are expanded uncertainties.

How the values were obtained:
[1] = Liquid, Closed cell (Static) method
[2] = excess molar enthalpy (molar enthalpy of mixing); xn = mol fraction of the nth substance listed; conditions: 303.15 K, 101 kPa, Liquid, Calvet calorimetry

Compound: CCN(CC)CCN [N,N-diethylethane-1,2-diamine]
- vapor or sublimation pressure ([1]; 273.15 K): 0.1291 ± 0.005 kPa
- vapor or sublimation pressure ([1]; 293.15 K): 0.5288 ± 0.014 kPa
- vapor or sublimation pressure ([1]; 298.15 K): 0.7256 ± 0.019 kPa
- vapor or sublimation pressure ([1]; 303.15 K): 0.9831 ± 0.025 kPa
- vapor or sublimation pressure ([1]; 313.15 K): 1.741 ± 0.04 kPa
- vapor or sublimation pressure ([1]; 323.15 K): 2.957 ± 0.064 kPa
- vapor or sublimation pressure ([1]; 333.15 K): 4.833 ± 0.1 kPa
- vapor or sublimation pressure ([1]; 343.15 K): 7.634 ± 0.16 kPa
- vapor or sublimation pressure ([1]; 353.15 K): 11.7 ± 0.24 kPa
- vapor or sublimation pressure ([1]; 363.15 K): 17.43 ± 0.36 kPa

Compound: CCN(CC)CCN [N,N-diethylethane-1,2-diamine] + CCCCCCC
- excess molar enthalpy ([2]; x1 = 0.0612): 0.0679 ± 0.00287 kcal/mol
- excess molar enthalpy ([2]; x1 = 0.1118): 0.115 ± 0.00478 kcal/mol
- excess molar enthalpy ([2]; x1 = 0.1488): 0.143 ± 0.00598 kcal/mol
- excess molar enthalpy ([2]; x1 = 0.2038): 0.179 ± 0.00741 kcal/mol
- excess molar enthalpy ([2]; x1 = 0.2452): 0.201 ± 0.00813 kcal/mol
- excess molar enthalpy ([2]; x1 = 0.3051): 0.222 ± 0.00908 kcal/mol
- excess molar enthalpy ([2]; x1 = 0.4078): 0.24 ± 0.0098 kcal/mol
- excess molar enthalpy ([2]; x1 = 0.5068): 0.239 ± 0.0098 kcal/mol
- excess molar enthalpy ([2]; x1 = 0.6156): 0.216 ± 0.00884 kcal/mol
- excess molar enthalpy ([2]; x1 = 0.7084): 0.183 ± 0.00741 kcal/mol
- excess molar enthalpy ([2]; x1 = 0.7471): 0.164 ± 0.00669 kcal/mol
- excess molar enthalpy ([2]; x1 = 0.8058): 0.135 ± 0.0055 kcal/mol
- excess molar enthalpy ([2]; x1 = 0.8841): 0.0866 ± 0.00359 kcal/mol

Compound: CCCCCCC [heptane]
- vapor or sublimation pressure ([1]; 273.15 K): 1.536 ± 0.036 kPa
- vapor or sublimation pressure ([1]; 293.15 K): 4.76 ± 0.1 kPa
- vapor or sublimation pressure ([1]; 298.15 K): 6.135 ± 0.13 kPa
- vapor or sublimation pressure ([1]; 303.15 K): 7.829 ± 0.16 kPa
- vapor or sublimation pressure ([1]; 313.15 K): 12.39 ± 0.26 kPa
- vapor or sublimation pressure ([1]; 323.15 K): 18.96 ± 0.39 kPa
- vapor or sublimation pressure ([1]; 333.15 K): 28.14 ± 0.57 kPa
- vapor or sublimation pressure ([1]; 343.15 K): 40.64 ± 0.83 kPa
- vapor or sublimation pressure ([1]; 353.15 K): 57.27 ± 1.2 kPa
- vapor or sublimation pressure ([1]; 363.15 K): 78.94 ± 1.6 kPa
